In the assay the target is T1, human GC-A (Homo sapiens, UniProt P16066).
T1 construct: expressed in transfected cells; host or cells: CHO cells
T1 sequence (P16066 33-1061): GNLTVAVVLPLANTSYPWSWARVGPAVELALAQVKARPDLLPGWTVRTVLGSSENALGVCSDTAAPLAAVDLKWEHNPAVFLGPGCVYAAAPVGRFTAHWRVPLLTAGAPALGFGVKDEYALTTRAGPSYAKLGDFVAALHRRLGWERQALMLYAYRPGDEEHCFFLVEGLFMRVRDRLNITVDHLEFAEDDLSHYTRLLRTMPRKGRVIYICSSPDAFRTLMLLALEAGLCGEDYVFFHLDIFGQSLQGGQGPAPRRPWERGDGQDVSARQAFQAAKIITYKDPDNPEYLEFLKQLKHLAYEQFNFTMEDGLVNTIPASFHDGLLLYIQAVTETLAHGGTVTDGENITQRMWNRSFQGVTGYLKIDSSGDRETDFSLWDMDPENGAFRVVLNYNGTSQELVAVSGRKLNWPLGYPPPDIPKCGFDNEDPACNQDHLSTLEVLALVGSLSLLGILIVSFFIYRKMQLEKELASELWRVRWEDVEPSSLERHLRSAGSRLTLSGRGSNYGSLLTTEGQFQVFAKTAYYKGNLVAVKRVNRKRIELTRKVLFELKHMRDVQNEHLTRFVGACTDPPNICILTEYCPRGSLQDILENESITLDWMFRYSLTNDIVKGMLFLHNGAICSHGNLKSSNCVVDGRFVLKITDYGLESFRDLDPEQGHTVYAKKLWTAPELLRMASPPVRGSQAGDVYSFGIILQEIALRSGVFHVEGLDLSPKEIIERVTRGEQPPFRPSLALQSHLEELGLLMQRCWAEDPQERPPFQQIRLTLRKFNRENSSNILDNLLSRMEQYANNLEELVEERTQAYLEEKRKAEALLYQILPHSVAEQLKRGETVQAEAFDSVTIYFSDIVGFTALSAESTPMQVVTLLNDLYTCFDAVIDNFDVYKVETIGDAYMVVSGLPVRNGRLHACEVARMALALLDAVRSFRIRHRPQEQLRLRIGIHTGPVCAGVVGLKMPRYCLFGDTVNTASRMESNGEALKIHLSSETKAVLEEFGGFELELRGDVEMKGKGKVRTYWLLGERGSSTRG
The assay is described as follows: cGMP elevating activity in CHO/human GC-A cells (Test Example 1). It counts as cell-based. An outline of the steps:
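cGMP in lysates was read by HTRF after a 15 min peptide exposure of GC-A-expressing CHO cells in a CO2 incubator, following 10 min room-temperature preincubation with 1.6 mM IBMX in KRB. T/C values were normalised between solvent wells (0) and 1 nM ANP wells (1).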
In the case of `CC[C@H](C)[C@@H]1NC(=O)[C@H](CCCNC(=N)N)NC(=O)[C@H](CC(=O)O)NC(=O)[C@H](CCSC)NC(=O)[C@H](CCCNC(=N)N)NC(=O)CNC(=O)CNC(=O)[C@H](Cc2ccccc2)NC(=O)[C@@H](NC(=O)[C@H](CO)NC(=O)[C@H](CO)NC(=O)[C@H](CCCNC(=N)N)NC(=O)[C@H](CCCNC(=N)N)NC(=O)[C@H](CC(C)C)NC(=O)[C@H](CO)NC(=O)CCOCCOCCOCCOCCNC(=O)[C@H](CCCCNC(=O)CCSCC(=O)NCCO[C@@H]2O[C@H](CO)[C@@H](O[C@@H]3O[C@H](CO)[C@@H](O[C@@H]4O[C@H](CO[C@H]5O[C@H](CO)[C@@H](O)[C@H](O)[C@@H]5O[C@@H]5O[C@H](CO)[C@@H](O[C@@H]6O[C@H](CO[C@]7(C(=O)O)C[C@H](O)[C@@H](NC(C)=O)[C@H]([C@H](O)[C@H](O)CO)O7)[C@H](O)[C@H](O)[C@H]6O)[C@H](O)[C@H]5NC(C)=O)[C@@H](O)[C@H](O[C@H]5O[C@H](CO)[C@@H](O)[C@H](O)[C@@H]5O[C@@H]5O[C@H](CO)[C@@H](O[C@@H]6O[C@H](CO[C@]7(C(=O)O)C[C@H](O)[C@@H](NC(C)=O)[C@H]([C@H](O)[C@H](O)CO)O7)[C@H](O)[C@H](O)[C@H]6O)[C@H](O)[C@H]5NC(C)=O)[C@@H]4O)[C@H](O)[C@H]3NC(C)=O)[C@H](O)[C@H]2NC(C)=O)NC(=O)CCSCC(=O)NCCO[C@@H]2O[C@H](CO)[C@@H](O[C@@H]3O[C@H](CO)[C@@H](O[C@@H]4O[C@H](CO[C@H]5O[C@H](CO)[C@@H](O)[C@H](O)[C@@H]5O[C@@H]5O[C@H](CO)[C@@H](O[C@@H]6O[C@H](CO[C@]7(C(=O)O)C[C@H](O)[C@@H](NC(C)=O)[C@H]([C@H](O)[C@H](O)CO)O7)[C@H](O)[C@H](O)[C@H]6O)[C@H](O)[C@H]5NC(C)=O)[C@@H](O)[C@H](O[C@H]5O[C@H](CO)[C@@H](O)[C@H](O)[C@@H]5O[C@@H]5O[C@H](CO)[C@@H](O[C@@H]6O[C@H](CO[C@]7(C(=O)O)C[C@H](O)[C@@H](NC(C)=O)[C@H]([C@H](O)[C@H](O)CO)O7)[C@H](O)[C@H](O)[C@H]6O)[C@H](O)[C@H]5NC(C)=O)[C@@H]4O)[C@H](O)[C@H]3NC(C)=O)[C@H](O)[C@H]2NC(C)=O)CSSC[C@@H](C(=O)N[C@@H](CC(N)=O)C(=O)N[C@@H](CO)C(=O)N[C@@H](Cc2ccccc2)C(=O)N[C@@H](CCCNC(=N)N)C(=O)N[C@@H](Cc2ccc(O)cc2)C(=O)O)NC(=O)CNC(=O)[C@H](CC(C)C)NC(=O)CNC(=O)[C@H](CO)NC(=O)[C@H](CCC(N)=O)NC(=O)[C@H](C)NC(=O)CNC1=O` [Compound 2-34, SG-thioacetamide-(SG-thioacetamide-)Lys-PEG-(3)-hANP(1-28)], the EC50 stood at 0.53 nM. `CC[C@H](C)[C@@H]1NC(=O)[C@H](CCCNC(=N)N)NC(=O)[C@H](CC(=O)O)NC(=O)[C@H](CCSC)NC(=O)[C@H](CCCNC(=N)N)NC(=O)CNC(=O)CNC(=O)[C@H](Cc2ccccc2)NC(=O)[C@@H](NC(=O)[C@H](CO)NC(=O)[C@H](CO)NC(=O)[C@H](CCCNC(=N)N)NC(=O)[C@H](CCCNC(=N)N)NC(=O)[C@H](CC(C)C)NC(=O)[C@H](CO)NC(=O)CCOCCOCCOCCOCCNC(=O)[C@H](CCCCNC(=O)CO[C@@H]2O[C@H](CO)[C@@H](O[C@@H]3O[C@H](CO)[C@@H](O[C@@H]4O[C@H](CO[C@H]5O[C@H](CO)[C@@H](O)[C@H](O)[C@@H]5O[C@@H]5O[C@H](CO)[C@@H](O[C@@H]6O[C@H](CO[C@]7(C(=O)O)C[C@H](O)[C@@H](NC(C)=O)[C@H]([C@H](O)[C@H](O)CO)O7)[C@H](O)[C@H](O)[C@H]6O)[C@H](O)[C@H]5NC(C)=O)[C@@H](O)[C@H](O[C@H]5O[C@H](CO)[C@@H](O)[C@H](O)[C@@H]5O[C@@H]5O[C@H](CO)[C@@H](O[C@@H]6O[C@H](CO[C@]7(C(=O)O)C[C@H](O)[C@@H](NC(C)=O)[C@H]([C@H](O)[C@H](O)CO)O7)[C@H](O)[C@H](O)[C@H]6O)[C@H](O)[C@H]5NC(C)=O)[C@@H]4O)[C@H](O)[C@H]3NC(C)=O)[C@H](O)[C@H]2NC(C)=O)NC(=O)CO[C@@H]2O[C@H](CO)[C@@H](O[C@@H]3O[C@H](CO)[C@@H](O[C@@H]4O[C@H](CO[C@H]5O[C@H](CO)[C@@H](O)[C@H](O)[C@@H]5O[C@@H]5O[C@H](CO)[C@@H](O[C@@H]6O[C@H](CO[C@]7(C(=O)O)C[C@H](O)[C@@H](NC(C)=O)[C@H]([C@H](O)[C@H](O)CO)O7)[C@H](O)[C@H](O)[C@H]6O)[C@H](O)[C@H]5NC(C)=O)[C@@H](O)[C@H](O[C@H]5O[C@H](CO)[C@@H](O)[C@H](O)[C@@H]5O[C@@H]5O[C@H](CO)[C@@H](O[C@@H]6O[C@H](CO[C@]7(C(=O)O)C[C@H](O)[C@@H](NC(C)=O)[C@H]([C@H](O)[C@H](O)CO)O7)[C@H](O)[C@H](O)[C@H]6O)[C@H](O)[C@H]5NC(C)=O)[C@@H]4O)[C@H](O)[C@H]3NC(C)=O)[C@H](O)[C@H]2NC(C)=O)CSSC[C@@H](C(=O)N[C@@H](CC(N)=O)C(=O)N[C@@H](CO)C(=O)N[C@@H](Cc2ccccc2)C(=O)N[C@@H](CCCNC(=N)N)C(=O)N[C@@H](Cc2ccc(O)cc2)C(=O)O)NC(=O)CNC(=O)[C@H](CC(C)C)NC(=O)CNC(=O)[C@H](CO)NC(=O)[C@H](CCC(N)=O)NC(=O)[C@H](C)NC(=O)CNC1=O` [Compound 2-35, SG-(SG-)Lys-PEG(3)-hANP(1-28)] came in with an EC50 of 0.31 nM. The compound `CC[C@H](C)[C@@H]1NC(=O)[C@H](CCCNC(=N)N)NC(=O)[C@H](CC(=O)O)NC(=O)[C@H](CCSC)NC(=O)[C@H](CCCNC(=N)N)NC(=O)CNC(=O)CNC(=O)[C@H](Cc2ccccc2)NC(=O)[C@@H](NC(=O)[C@H](CO)NC(=O)[C@H](CO)NC(=O)[C@H](CCCNC(=N)N)NC(=O)[C@H](CCCNC(=N)N)NC(=O)[C@H](CC(C)C)NC(=O)[C@H](CO)NC(=O)CNC(=O)[C@H](CO)NC(=O)CNC(=O)[C@H](CO)NC(=O)CNC(=O)[C@H](CO)NC(=O)[C@H](CC(=O)N[C@@H]2O[C@H](CO)[C@@H](O[C@@H]3O[C@H](CO)[C@@H](O[C@@H]4O[C@H](CO[C@H]5O[C@H](CO)[C@@H](O)[C@H](O)[C@@H]5O[C@@H]5O[C@H](CO)[C@@H](O[C@@H]6O[C@H](CO[C@]7(C(=O)O)C[C@H](O)[C@@H](NC(C)=O)[C@H]([C@H](O)[C@H](O)CO)O7)[C@H](O)[C@H](O)[C@H]6O)[C@H](O)[C@H]5NC(C)=O)[C@@H](O)[C@H](O[C@H]5O[C@H](CO)[C@@H](O)[C@H](O)[C@@H]5O[C@@H]5O[C@H](CO)[C@@H](O[C@@H]6O[C@H](CO[C@]7(C(=O)O)C[C@H](O)[C@@H](NC(C)=O)[C@H]([C@H](O)[C@H](O)CO)O7)[C@H](O)[C@H](O)[C@H]6O)[C@H](O)[C@H]5NC(C)=O)[C@@H]4O)[C@H](O)[C@H]3NC(C)=O)[C@H](O)[C@H]2NC(C)=O)NC(=O)CO[C@@H]2O[C@H](CO)[C@@H](O[C@@H]3O[C@H](CO)[C@@H](O[C@@H]4O[C@H](CO[C@H]5O[C@H](CO)[C@@H](O)[C@H](O)[C@@H]5O[C@@H]5O[C@H](CO)[C@@H](O[C@@H]6O[C@H](CO[C@]7(C(=O)O)C[C@H](O)[C@@H](NC(C)=O)[C@H]([C@H](O)[C@H](O)CO)O7)[C@H](O)[C@H](O)[C@H]6O)[C@H](O)[C@H]5NC(C)=O)[C@@H](O)[C@H](O[C@H]5O[C@H](CO)[C@@H](O)[C@H](O)[C@@H]5O[C@@H]5O[C@H](CO)[C@@H](O[C@@H]6O[C@H](CO[C@]7(C(=O)O)C[C@H](O)[C@@H](NC(C)=O)[C@H]([C@H](O)[C@H](O)CO)O7)[C@H](O)[C@H](O)[C@H]6O)[C@H](O)[C@H]5NC(C)=O)[C@@H]4O)[C@H](O)[C@H]3NC(C)=O)[C@H](O)[C@H]2NC(C)=O)CSSC[C@@H](C(=O)N[C@@H](CC(N)=O)C(=O)N[C@@H](CO)C(=O)N[C@@H](Cc2ccccc2)C(=O)N[C@@H](CCCNC(=N)N)C(=O)N[C@@H](Cc2ccc(O)cc2)C(=O)O)NC(=O)CNC(=O)[C@H](CC(C)C)NC(=O)CNC(=O)[C@H](CO)NC(=O)[C@H](CCC(N)=O)NC(=O)[C@H](C)NC(=O)CNC1=O` [Compound 2-36, SG-(SG-)Asn-(Ser-Gly)3-hANP(1-28)] returned an EC50 of 0.39 nM.

The values are drawn from US10947289B2, “Glyco-modified atrial natriuretic peptide” (priority 2013, dated 2021).
